Data: patent US6359112B2 (Fraunhofer-Gesellschaft zur Forferung der angewandten …, priority 1997, dated 2002)
Where two headings read alike, the source gives them in different places. No end group written: not given here.

How the values were obtained:
[1] = system: Rat Insulinoma (RIN5 mf)
Procedure: (§1) FIG. 4 is a graph of MTT reduction as a function of concentration of NFGAIL, SEQ ID NO: 3.
(§2) Suspensions of the peptide aggregate (produced as described as above) were tested by means of a Rat Insulinoma (RIN5 mf) and a human astroglioma-cell series (HTB-14) for toxicity. The newly dissolved peptides were also tested for cytotoxicity.

[2] = system: human astroglioma-cell series (HTB-14)
Procedure: as §1, §2

[3] = aggregated form (suspension of peptide aggregate)
[4] = soluble form (newly dissolved peptide)

With NFGAIL [NFGAIL] the Cytotoxicity [1, 3] was “cyto-toxic”, the Cytotoxicity [1, 4] was “no toxicity” and the Cytotoxicity [2, 3] was “cyto-toxic”. For the same substance, the Cytotoxicity [2, 4] was “no toxicity”.
